Assay in all cases: In vitro antifungal activity, MIC (Method A)
What all share (type): cell-based

The test system of one assay is Cryptococcus neoformans. To be noted: Cryptococcus neoformans, 72 h, 3 days, 27° C. The method, then: (§1) The in vitro antifungal activities of representative compounds of the present invention were measured by determining the minimal inhibitory concentration (MIC), which is the concentration of an antifungal at which no fungal growth can be observed.
(§2) The MICs were determined by the microbroth dilution procedure according to NCCLS with the following minor modifications (Galgiani et al., Antimicrob. Agents Chemother., 33, 731 (1989). The medium was solidified with 0.2% low melting point agarose and buffered to pH 7.0 with 0.25%: K2 HPO4 in Yeast Nitrogen Base (Difco Lab.). Inoculum size was 1×10^5 cells/ml, and incubation was carried out for 3 days at 27° C. The MICs ([…]) are shown in Table 1. The reference compound is compound (IA) in U.S. Pat. No. 4,952,604. The compounds used are identified by reference to the Examples in which they were prepared.
(§3) The in vitro antifungal activities of the representative compounds of the present invention shown in Table 1 and Table 2 were measured by determining the minimal inhibitory concentrations (MIC: Method A) or 80% growth inhibition concentration (IC80 : Method B) respectively. MIC is defined as the concentration of an antifungal at which growth of fungi is not observed and IC80 is the concentration where cell turbidity measured at OD630 is reduced by 80%.
(§4) Antifungal activities were determined by either method A or B (see below) using microtest plates according NCCLS with minor modifications (Galgiani et at., Antimicrob. Agents Chemother. 33, 731 (1989)).
(§5) (Method A) The medium was solidified with 0.2% low melting point agarose and buffered to pH 7.0 with 0.25% K2 HPO4 in Yeast Nitrogen Base (Difco Lab.). Inoculum size was 1×10^5 cells/ml, and incubation was carried out for 3 days at 27° C. The reference compound is compound (IA) in U.S. Pat. No. 4,952,604.

A further assay has as its system Candida albicans. To be noted: Candida albicans, 72 h, 3 days, 27° C. The method, then:
as §1, §2, §3, §4, §5

In a further assay the test system is Aspergillus fumigatus. To be noted: Aspergillus fumigatus, 72 h, 3 days, 27° C. The method, then:
as §1, §2, §3, §4, §5

The mark [1] stands for this setting: pH 7, Cryptococcus neoformans CY1057, 1×10^5 cells/ml.
Where [2] appears, read: pH 7, Cryptococcus neoformans CY1059, 1×10^5 cells/ml.
The mark [3] stands for this setting: pH 7, Cryptococcus neoformans CY1061, 1×10^5 cells/ml.
[4] abbreviates: pH 7, Candida albicans CY1002, 1×10^5 cells/ml.
The mark [5] stands for this setting: pH 7, Candida albicans CY1005, 1×10^5 cells/ml.
Setting [6] is: pH 7, Candida albicans CY3003, 1×10^5 cells/ml.
Setting [7] is: pH 7, Aspergillus fumigatus CF1003, 1×10^5 cells/ml.
Where [8] appears, read: pH 7, Aspergillus fumigatus CF1004, 1×10^5 cells/ml.
The mark [9] stands for this setting: pH 7, Aspergillus fumigatus CF1023, 1×10^5 cells/ml.

The text below walks through data of patent US5719291A, “Cyclohexane derivatives” (Hoffmann-La Roche Inc., priority 1991, dated 1998).

Converted amounts (≈) assume the structure as drawn. Where a name gives a salt, the structure may show the parent alone.

For `CCCCCCCCC[C@@H]1OC[C@H](C)[C@H](OCCC)[C@H]1OC(=O)CN` [Example 23, 2S,3R,4S,5S)-5-methyl-2-nonyl-4-propoxytetrahydro-2-H-pyran-3-yl glycinate trifluoroacetic acid salt], the MIC with Cryptococcus neoformans (setting [1]) came to 12.5 µg/mL; with Cryptococcus neoformans (setting [2]), 12.5 µg/mL; against Cryptococcus neoformans (setting [3]) it was 12.5 µg/mL; with Candida albicans (setting [4]), 25 µg/mL; with Candida albicans (setting [5]), 25 µg/mL; against Candida albicans (setting [6]), 50 µg/mL. The MIC in the assay with Aspergillus fumigatus (setting [7]), in the assay on Aspergillus fumigatus (setting [8]) and against Aspergillus fumigatus (setting [9]) was 50 µg/mL in each case.
With `CCCCCCC/C=C\[C@@H]1OC[C@H](C)[C@H](OCCC)[C@H]1OC(=O)CN` [Example 22, (2S,3R,4S,5-S)-5-methyl-2-[(Z)-1-nonenyl]-4-prpoxy-tetrahydro-2H-pyran-3-ylglycinate trifluoroacetic acid salt], the MIC was determined as 6.25 µg/mL against Cryptococcus neoformans (setting [1]); 12.5 µg/mL in the assay with Cryptococcus neoformans (setting [2]); 12.5 µg/mL in the assay on Cryptococcus neoformans (setting [3]); 50 µg/mL in the assay on Candida albicans (setting [4]); 50 µg/mL in the assay with Candida albicans (setting [5]); 50 µg/mL with Candida albicans (setting [6]). For the same compound, the MIC against Aspergillus fumigatus (setting [7]), in the assay on Aspergillus fumigatus (setting [8]) and in the assay with Aspergillus fumigatus (setting [9]) was 50 µg/mL each time.
With `CCCCCCCCC[C@@H]1OC[C@H](C)C=C1Cn1ccnc1` [Example 59, 1-[[(2S,5R)-5,6-dihydro-5-methyl-2-nonyl-2H-pyran-3-yl]methyl]-1H-imidazole], the MIC is 3.13 µg/mL (≈ 10.3 µM) in the assay on Cryptococcus neoformans (setting [1]); 6.25 µg/mL (≈ 20.5 µM) with Cryptococcus neoformans (setting [2]); 3.13 µg/mL (≈ 10.3 µM) in the assay with Cryptococcus neoformans (setting [3]); 50 µg/mL (≈ 164 µM) in the assay on Candida albicans (setting [4]); 25 µg/mL (≈ 82.1 µM) in the assay on Candida albicans (setting [5]); 25 µg/mL (≈ 82.1 µM) in the assay with Candida albicans (setting [6]). For the same compound, the MIC amounted to 3.13 µg/mL (≈ 10.3 µM) against Aspergillus fumigatus (setting [7]), 12.5 µg/mL (≈ 41.1 µM) in the assay with Aspergillus fumigatus (setting [8]) and 12.5 µg/mL (≈ 41.1 µM) against Aspergillus fumigatus (setting [9]).
Take `CCCCCCC/C=C\[C@@H]1OC[C@@H](C)[C@H](OC)[C@H]1OC(=O)CN.O=C(O)C(F)(F)F` [Example 42, (2S,3R,4S,5R)-4-methoxy-5-methyl-2-[(Z)-1-nonenyl]tetrahydro-2H-pyran-3-yl glycinate trifluoroacetic acid salt]: the MIC against Cryptococcus neoformans (setting [1]) was 3.13 µg/mL; in the assay on Cryptococcus neoformans (setting [2]), 3.13 µg/mL; in the assay with Cryptococcus neoformans (setting [3]) it was 12.5 µg/mL; against Candida albicans (setting [4]), 100 µg/mL; in the assay on Candida albicans (setting [5]), 50 µg/mL; in the assay on Candida albicans (setting [6]), 50 µg/mL. Further, the MIC in the assay on Aspergillus fumigatus (setting [7]) was 100 µg/mL; in the assay on Aspergillus fumigatus (setting [8]) it was 100 µg/mL; against Aspergillus fumigatus (setting [9]), 50 µg/mL.
Take `CCCCCCCCC[C@@H]1OC[C@H](C)[C@H](OC)[C@@H]1OC(=O)CN.O=CO` [Example 5, (2S,3R,4S,5S)-4-methoxy-5-methyl-2-nonyl-tetrahydro-2H-pyran-3-yl glycinate formic acid salt]: the MIC in the assay on Cryptococcus neoformans (setting [1]) was found to be 12.5 µg/mL; in the assay on Cryptococcus neoformans (setting [2]), 12.5 µg/mL; with Cryptococcus neoformans (setting [3]) it was 25 µg/mL; in the assay with Candida albicans (setting [4]) it was 50 µg/mL; in the assay with Candida albicans (setting [5]) it was 25 µg/mL; with Candida albicans (setting [6]), 25 µg/mL. The results for the MIC with Aspergillus fumigatus (setting [7]), with Aspergillus fumigatus (setting [8]) and with Aspergillus fumigatus (setting [9]) were 50 µg/mL, 100 µg/mL and 50 µg/mL, respectively.
Regarding `CCCCCCC/C=C/[C@@H]1OC[C@H](C)C[C@H]1OC(=O)CN.O=C(O)C(F)(F)F` [Example 28, (2S,3R,5R)-5-methyl-2-[(E)-1-nonenyl]tetrahydro-2H-pyran-3-yl glycinate trifluoroacetic acid salt], the MIC came to 3.13 µg/mL in the assay with Cryptococcus neoformans (setting [1]); 3.13 µg/mL with Cryptococcus neoformans (setting [2]); 12.5 µg/mL against Cryptococcus neoformans (setting [3]); 50 µg/mL against Candida albicans (setting [4]); 50 µg/mL in the assay with Candida albicans (setting [5]); 50 µg/mL in the assay with Candida albicans (setting [6]). The MIC with Aspergillus fumigatus (setting [7]) was 50 µg/mL; against Aspergillus fumigatus (setting [8]), 50 µg/mL; against Aspergillus fumigatus (setting [9]), 25 µg/mL.
On to `CCC/C=C/C=C/C=C/[C@@H]1OC[C@H](C)[C@H](OC)[C@H]1OC(=O)CN.O=CO` [Example 11, (2S,3R,4S,5S)-4-methoxy-5-methyl-2-[(1E,3E,5E)-1,3,5-nonatrienyl]tetrahydro-2H-pyran-3-yl glycinate formic acid salt], for which the minimal inhibitory concentration (MIC) in the assay with Cryptococcus neoformans (setting [1]) was determined as 6.25 µg/mL; in the assay with Cryptococcus neoformans (setting [2]) it was 6.25 µg/mL; against Cryptococcus neoformans (setting [3]), 25 µg/mL; against Candida albicans (setting [4]), 200 µg/mL; in the assay on Candida albicans (setting [5]), 200 µg/mL; with Candida albicans (setting [6]) it was 100 µg/mL. Besides, the minimum inhibitory concentration (MIC) in the assay on Aspergillus fumigatus (setting [7]), with Aspergillus fumigatus (setting [8]) and against Aspergillus fumigatus (setting [9]) was 6.25 µg/mL throughout.
As for `CCCCCCC/C=C/[C@@H]1OC[C@@H](OCc2ccccc2)[C@H](OC)[C@@H]1OC(=O)CN.O=C(O)C(F)(F)F` [Example 31, (2S,3R,4S,5R)-5-benzyloxy-4-methoxy-2-[(E)-1-nonenyl]tetra-hydro-2H-pyran-3-yl glycinate trifluoroacetic acid salt], the MIC in the assay with Cryptococcus neoformans (setting [1]) stood at 6.25 µg/mL; in the assay with Cryptococcus neoformans (setting [2]) it was 12.5 µg/mL; with Cryptococcus neoformans (setting [3]) it was 12.5 µg/mL; with Candida albicans (setting [4]), 50 µg/mL; with Candida albicans (setting [5]) it was 50 µg/mL; in the assay on Candida albicans (setting [6]), 25 µg/mL. Moreover, the MIC in the assay on Aspergillus fumigatus (setting [7]) was determined as 100 µg/mL; in the assay on Aspergillus fumigatus (setting [8]) it was 200 µg/mL; with Aspergillus fumigatus (setting [9]), 50 µg/mL.
On to `CCCCCCCCC[C@@H]1OC[C@@H](C)[C@H](OC)[C@@H]1OC(=O)CN.O=C(O)C(F)(F)F` [Example 43, (2S,3R,4S,5R)-4-methoxy-5-methyl-2-nonyltetrahydro-2H-pyran-3-yl glycinate trifluoroacetic acid salt], for which the MIC turned out to be 6.25 µg/mL with Cryptococcus neoformans (setting [1]); 6.25 µg/mL with Cryptococcus neoformans (setting [2]); 12.5 µg/mL in the assay on Cryptococcus neoformans (setting [3]); 50 µg/mL with Candida albicans (setting [4]); 25 µg/mL in the assay with Candida albicans (setting [5]); 25 µg/mL against Candida albicans (setting [6]). In addition, the MIC against Aspergillus fumigatus (setting [7]) is 50 µg/mL; with Aspergillus fumigatus (setting [8]), 50 µg/mL; against Aspergillus fumigatus (setting [9]), 25 µg/mL.
As for `CCCCCCCCO[C@@H]1CCC(C)(C)[C@H](OC)[C@@H]1Cn1ccnc1` [Example 68, 1-[[(1R,2R,6R)-2-methoxy-3,3-dimethyl-6-octyloxy-cyclohexyl]methyl]-1H-imidazole], the MIC came to 0.39 µg/mL (≈ 1.11 µM) in the assay with Cryptococcus neoformans (setting [1]); 0.78 µg/mL (≈ 2.23 µM) with Cryptococcus neoformans (setting [2]); 3.13 µg/mL (≈ 8.93 µM) in the assay with Cryptococcus neoformans (setting [3]); 25 µg/mL (≈ 71.3 µM) with Candida albicans (setting [4]); 12.5 µg/mL (≈ 35.7 µM) against Candida albicans (setting [5]); 12.5 µg/mL (≈ 35.7 µM) in the assay on Candida albicans (setting [6]). Also, the figures for the MIC in the assay on Aspergillus fumigatus (setting [7]), in the assay on Aspergillus fumigatus (setting [8]) and with Aspergillus fumigatus (setting [9]) were 6.25 µg/mL (≈ 17.8 µM), 12.2 µg/mL (≈ 34.9 µM) and 6.25 µg/mL (≈ 17.8 µM), respectively.
Regarding `CCCCCCC/C=C\[C@@H]1OC[C@H](C)[C@H](OC)[C@H]1OC(=O)CN` [Example 1, (2S,3R,4S,5S)-4-methoxy-5-methyl-2-[(Z)-1-nonenyl]tetrahydro-2H-pyran-3-ylglycinate trifluoro acetic acid salt], the MIC in the assay on Cryptococcus neoformans (setting [1]) came to 1.56 µg/mL; in the assay with Cryptococcus neoformans (setting [2]) it was 3.13 µg/mL; against Cryptococcus neoformans (setting [3]) it was 6.25 µg/mL; with Candida albicans (setting [4]), 100 µg/mL; with Candida albicans (setting [5]), 100 µg/mL; against Candida albicans (setting [6]) it was 100 µg/mL. Further, the MIC with Aspergillus fumigatus (setting [7]) was determined as 100 µg/mL; with Aspergillus fumigatus (setting [8]), 200 µg/mL; against Aspergillus fumigatus (setting [9]), 100 µg/mL.
For the compound `CCCCCCCC/C=C/[C@@H]1OC[C@H](C)[C@H](OC)[C@H]1OC(=O)CN.O=C(O)C(F)(F)F` [Example 6, (2S,3R,4S,5S)-2-[(E)-1-decenyl]-4-methoxy-5-methyltetrahydro-2H-pyran-3-yl glycinate trifluoroacetic acid salt], the MIC with Cryptococcus neoformans (setting [1]) was found to be 12.5 µg/mL; against Cryptococcus neoformans (setting [2]), 12.5 µg/mL; in the assay on Cryptococcus neoformans (setting [3]), 25 µg/mL; in the assay on Candida albicans (setting [4]), 100 µg/mL; with Candida albicans (setting [5]), 100 µg/mL; in the assay with Candida albicans (setting [6]), 100 µg/mL. Also, the minimum inhibitory concentration (MIC) in the assay on Aspergillus fumigatus (setting [7]) is 12.5 µg/mL; with Aspergillus fumigatus (setting [8]) it was 12.5 µg/mL; in the assay with Aspergillus fumigatus (setting [9]), 6.25 µg/mL.
For the compound `CO[C@@H]1[C@H](OC(=O)CN)[C@H](CCCC(C)CCCC(C)C)OC[C@@H]1C.O=C(O)C(F)(F)F` (stereo partly drawn) [Example 8, (2S,3R,4S,5S)-2-(4,8-dimethylnonyl)-4-methoxyl-5-methyltetrahydro-2H-pyran-3-yl glycinate trifluoroacetic acid salt], the MIC against Cryptococcus neoformans (setting [1]) was found to be 12.5 µg/mL; in the assay with Cryptococcus neoformans (setting [2]), 12.5 µg/mL; against Cryptococcus neoformans (setting [3]) it was 12.5 µg/mL; with Candida albicans (setting [4]) it was 50 µg/mL; in the assay on Candida albicans (setting [5]), 50 µg/mL; against Candida albicans (setting [6]), 50 µg/mL. The MIC against Aspergillus fumigatus (setting [7]) was found to be 50 µg/mL; against Aspergillus fumigatus (setting [8]) it was 100 µg/mL; with Aspergillus fumigatus (setting [9]), 50 µg/mL.

What is called MIC is the lowest concentration that inhibits growth of the organism. A high value points to a less susceptible organism.
